Source: patent publication US20260297060A1, “COMPOUNDS FOR THE DEGRADATION OF MUTANT BRAF” (C4 THERAPEUTICS, INC., priority 2023, published 2026)
Where two headings read alike, the source gives them in different places.

How the values were obtained:
[1] = system: A375 human melanoma xenografts; test: Example 9 efficacy study Part II in A375 human melanoma xenografts (tumor volume, T/C, TGI); type: in vivo, BALB/c nude mice; conditions: 10 mg/kg, p.o., BID × 14 days; for Tumor Size on PG-D14: Mean ± SEM; for TGI (Tumor Growth Inhibition): PG-D14; for T/C: PG-D14, treated/control average tumor volume
Method: (§1) For efficacy study Part II, agents were tested in the A375 human melanoma xenografts model. Compound 133, Compound 144 and Compound 198 were administered to BALB/c nude mice bearing A375 xenografts from day 0 and dosed twice a day (BID) for 14 days. Compound 133, Compound 144 and Compound 198 were dosed at 10 mg/kg via p.o..
The A375 tumor cells were maintained in vitro in DMEM medium supplemented with […] and 1% Penicillin-Streptomycin at 37° C. in an atmosphere of 5% CO2 in air. The tumor cells were routinely subcultured twice weekly. The cells growing in an exponential growth phase were harvested and counted for tumor inoculation.
Each mouse was inoculated subcutaneously at the right flank with A375 cells (5×10^6) in 0.2 mL of PBS supplemented with Matrigel (PBS: Matrigel=1:1) for tumor development. Animals were grouped for the treatment when the average tumor volume reached 243 mm^3 for efficacy study part I and 413 mm^3 for the PK and PD study part I on day 15, and 271 mm^3 for efficacy part II and 443 mm^3 for the PK and PD part II on day 18, and 463 mm^3 for the PK and PD study part III on day 21. The test articles administration and the animal numbers in each group are shown in the above experimental tables.
Prior to the onset of drug treatment, mice were measured for tumor size in two dimensions using a caliper, and the tumor volume (mm^3) was calculated using formula V=0.5 a×b^2 where a and b are the long and short diameters of the tumor in mm, respectively. Mice were randomized into different treatment groups based on the tumor volume.
The major endpoint was to see if the tumor growth could be delayed or mice could be cured. The tumor size was then used for calculations of T/C value. The T/C value (in percent) is an indication of antitumor effectiveness; T and C are the mean volumes of the treated and control groups, respectively on specified day.
TGI was calculated for each group using the formula: TGI (%)=[1−(Ti−T0)/(Ci−C0)]×100; Ti is the average tumor volume of a treatment group on a given day, To is the average tumor volume of the treatment group on the day of treatment start, Ci is the average tumor volume of the vehicle control group on the same day with Ti, and C0 is the average tumor volume of the vehicle group on the day of treatment start.

[2] = Example 9 pharmacokinetics assay for efficacy study Part I and II (plasma, liver); type: in vivo, BALB/c nude mice; conditions: mouse, po, 10 mg/kg, p.o., BID × 14 days, 6 h following treatment, ± SEM
Method: For efficacy study Part I, agents were tested in the A375 human melanoma xenografts. Compound 218 and Compound 157 were administered to BALB/c nude mice bearing A375 xenografts from day 0 and dosed twice a day (BID) for 14 days. Compound 218 and Compound 157 were dosed at 10 mg/kg via p.o.. Dabrafenib was administered from day 1 daily (QD) for 14 days and dosed at 100 mg/kg via p.o..
as §1
The plasma samples were collected at predetermined time points for PK analysis. The mice were euthanized at predetermined time points post the treatment. The blood samples were collected into the 1.5 mL Eppendorf tubes containing 15 μL of 0.5 M EDTA-K2. And then the anticoagulant blood samples were centrifuged at 2,500 g at 4° C. for 15 minutes. The plasma samples were separated into 2 aliquots. The 1st was used for PK analysis, and the 2nd served as backup. The samples were stored at −80° C. before bioanalysis.
Liver samples were collected at predetermined time points for PK analysis. The left lobe of the liver was dissected out and split into 2 parts. The 1st part was used for PK analysis and the 2nd part served as the backup for the study. The samples were transferred into pre-labeled tubes and quickly froze in liquid nitrogen within 2 minutes after dissection. The samples were stored at −80° C. before bioanalysis.
The harvested plasma and liver samples were processed for pharmacokinetics analysis by LC-MS/MS with a concentration range of 1.00-1,000 ng/mL for Dabrafenib in plasma and liver homogenate, 10.0-10,000 ng/mL for Compound 218, Compound 157, Compound 133, Compound 144 and Compound 198 in plasma and liver homogenate.

[3] = liver, read-out: Mean Concentration in Liver
[4] = plasma, read-out: Mean Concentration in Plasma

| Compound | Tumor Volume Trace Over Time ([1]; Day 0, Mean ± SEM) [mm^3] | Tumor Volume Trace Over Time ([1]; Day 4, Mean ± SEM) [mm^3] | Tumor Volume Trace Over Time ([1]; Day 7, Mean ± SEM) [mm^3] | Tumor Volume Trace Over Time ([1]; Day 11, Mean ± SEM) [mm^3] | Tumor Volume Trace Over Time ([1]; Day 14, Mean ± SEM) [mm^3] | Tumor Size on PG-D14 [1] [mm^3] | TGI (Tumor Growth Inhibition) [1] [%] | T/C [1] [%] | concentration at 6 h [2, 3] [ng/g] | concentration at 6 h [2, 4] [ng/mL] |
| --- | --- | --- | --- | --- | --- | --- | --- | --- | --- | --- |
| CO[C@@H]1CCN(S(=O)(=O)Nc2ccc(F)c(Oc3ccc4ncn([C@H]5COC6(CCN(C7CC8(C7)CN(c7cc9c(cc7F)c(N7CCC(=O)NC7=O)nn9C)C8)CC6)C5)c(=O)c4c3)c2C#N)C1 [Compound 144, (3R)-N-[2-cyano-3-[3-[(3R)-8-[2-[3-(2,4-dioxohexahydropyrimidin-1-yl)-5-fluoro-1-methyl-indazol-6-yl]-2-azaspiro[3.3]heptan-6-yl]-1-oxa-8-azaspiro[4.5]decan-3-yl]-4-oxo-quinazolin-6-yl]oxy-4-fluoro-phenyl]-3-methoxy-pyrrolidine-1-sulfonamide] | 271 | 167 | 79 | 51 | 28 | 28 ± 5 | 125.70 | 2.27 | 2470 ± 252 | 14700 ± 2220 |
| Cn1nc(N2CCC(=O)NC2=O)c2cc(F)c(N3CC4(CC(N5CCC6(CC5)C[C@@H](n5cnc7ccc(Oc8c(F)ccc(NS(=O)(=O)N9CC[C@@H](F)C9)c8C#N)cc7c5=O)CO6)C4)C3)cc21 [Compound 133, (3R)-N-[2-cyano-3-[3-[(3R)-8-[2-[3-(2,4-dioxohexahydropyrimidin-1-yl)-5-fluoro-1-methyl-indazol-6-yl]-2-azaspiro[3.3]heptan-6-yl]-1-oxa-8-azaspiro[4.5]decan-3-yl]-4-oxo-quinazolin-6-yl]oxy-4-fluoro-phenyl]-3-fluoro-pyrrolidine-1-sulfonamide] | 271 | 193 | 99 | 71 | 32 | 32 ± 7 | 125.20 | 2.65 | 1910 ± 169 | 5070 ± 270 |
| CCN(C)S(=O)(=O)Nc1ccc(F)c(Oc2ccc3ncn(C4CC5(CCN(C6CC7(CCN(c8cc9c(cc8F)c(N8CCC(=O)NC8=O)nn9C)CC7)C6)CC5)C4)c(=O)c3c2)c1C#N (stereo not drawn) [Compound 198, 6-[2-cyano-3-[[ethyl(methyl)sulfamoyl]amino]-6-fluoro-phenoxy]-3-[7-[7-[3-(2,4-dioxohexahydropyrimidin-1-yl)-5-fluoro-1-methyl-indazol-6-yl]-7-azaspiro[3.5]nonan-2-yl]-7-azaspiro[3.5]nonan-2-yl]-4-oxo-quinazoline] | 271 | 192 | 93 | 60 | 58 | 58 ± 13 | 122.45 | 4.79 | 3320 ± 479 | 7640 ± 799 |
